Assay [1] has as its target T1, neurokinin-1 (NK-1) receptor (Homo sapiens, UniProt P25103).
T1 construct: endogenously expresses the neurokinin-1 (NK-1) receptor; endogenous in cells; host or cells: U373 human glioblastoma-astrocytoma cells (membranes)
Put plainly: NK-1 Binding assay ([125I] Substance P competition, U373 cell membranes). The note with it: Bolton Hunter labeled [125I] Substance P, 30 min at 20° C. The procedure:
NK-1 Binding assay. U373 cells, a human glioblastoma-astrocytoma cell line that endogenously expresses the neurokinin-1 (NK-1) receptor, were grown in a monolayer culture at 37° C. in 5% CO2 and fed with Minimum Essential Medium (MEM) supplemented with 10% fetal bovine serum. Membranes were prepared as follows: Cells were washed twice with ice-cold phosphate-buffered saline (pH 7.4) and then incubated for 5–10 minutes with ice-cold 10 mM Tris buffer (pH 7.4) containing 5 mM EDTA. Cells were removed from plates, homogenized, and centrifuged at 32,000×g for 20 minutes. The resulting supernatant was discarded, and the pellet resuspended by homogenization in 50 mM Tris buffer (pH 7.4) containing 1 mM EDTA and centrifuged at 32,000×g for 20 minutes. The resulting supernatant was discarded, and the pellet resuspended by homogenization in NK-1 binding assay buffer (50 mM Tris-HCL (pH 7.4), 3 mM MnCl2, 200 μg/ml BSA, 5 μg/ml chymostatin, 40 μg/ml bacitracin and 4 μg/ml leupeptin).
On the day of an experiment the membrane preparation was thawed, homogenized and diluted with NK-1 binding assay buffer to the appropriate concentration. Competition binding assays were performed in 96 well plate format by incubating membranes (5–10 μg/well) with Bolton Hunter labeled [^125I] Substance P, at a concentration of […], and concentrations of drugs ranging from 10000 to 0.01 nM. Samples were incubated for 30 min at 20° C. then filtered through GF/B glass fiber filters (pretreated with 1% polyethyleneimine and 0.3% Triton X-100) using a Brandel cell harvester. The filters were then washed with 10 ml ice cold 50 mM Tris-HCL (pH 7.4) containing 3 mM MgCl2. Non-specific was defined in the presence of 2 μM L-733,060 (a non-peptide NK-1 antagonist). The amount of radioligand bound in the presence and absence of competitor was analyzed by plotting (−)log drug concentration versus the amount of radioligand specifically bound. The midpoint of the displacement curve (IC50, nM), signifies the potency. Ki values can be calculated using the method of Cheng and Prusoff (Cheng and Prusoff, Biochemical Pharmacology, Vol 22, pp. 3099–3108, Pergamon Press (1973)).

The target of assay [2] is T2, human serotonin transporters (Homo sapiens, UniProt P31645).
T2 construct: expressed in transfected cells
T2 sequence (P31645 whole entry): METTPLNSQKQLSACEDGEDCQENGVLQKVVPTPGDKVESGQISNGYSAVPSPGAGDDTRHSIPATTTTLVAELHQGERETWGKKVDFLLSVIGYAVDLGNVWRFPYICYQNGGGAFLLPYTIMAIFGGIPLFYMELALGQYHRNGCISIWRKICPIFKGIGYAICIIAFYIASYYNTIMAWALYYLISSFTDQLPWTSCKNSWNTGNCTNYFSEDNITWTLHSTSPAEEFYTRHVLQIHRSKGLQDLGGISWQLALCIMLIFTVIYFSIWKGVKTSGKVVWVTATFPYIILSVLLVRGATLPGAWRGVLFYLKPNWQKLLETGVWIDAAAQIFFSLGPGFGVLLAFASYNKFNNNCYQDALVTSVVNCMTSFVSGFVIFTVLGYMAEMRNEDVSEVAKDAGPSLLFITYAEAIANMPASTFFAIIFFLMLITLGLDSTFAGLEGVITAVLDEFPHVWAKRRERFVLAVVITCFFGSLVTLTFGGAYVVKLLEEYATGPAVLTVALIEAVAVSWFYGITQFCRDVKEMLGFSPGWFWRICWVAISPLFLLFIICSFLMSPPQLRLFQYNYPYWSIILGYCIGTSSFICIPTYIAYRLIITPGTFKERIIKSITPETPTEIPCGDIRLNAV
As to the kind of experiment: Serotonin transporter binding assay ([3H]-citalopram competition, HEK-hSERT cell membranes). The note with it: 1 nM [3H]-citalopram, 1 hr at 25° C., read-out: SERT IC50. The procedure: Serotonin transporter binding assay. HEK-293 cells that stably express human serotonin transporters (HEK-hSERT cells) were grown at 37° C. in 5% CO2 as a monolayer in medium consisting of EMEM supplemented with 10% fetal bovine serum and G418 sulfate (500 μg/ml). To prepare membranes for radioligand binding experiments, cells were rinsed twice with phosphate-buffered saline (138 mM NaCl, 4.1 mM KCl, 5.1 mM Na2PO4, 1.5 mM KH2PO4, 11.1 mM glucose, pH 7.4). Cells were transferred from plates to polypropylene tubes (16×100 mm), centrifuged at 1,200×g for 5 min and were frozen at −80° C. until assay. Following centrifugation, pellets were resuspended by homogenization in buffer consisting of 50 mM Tris (pH 7.7 at 25° C.), 120 mM NaCl and 5 mM KCl and then centrifuged at 32,000×g for 10 min. Following centrifugation, supernatants were discarded and pellets were resuspended in buffer consisting of 50 mM Tris (pH 7.4 at 25° C.), 150 mM NaCl and 5 mM KCl. Membrane homogenates (200 μl/plate) were incubated with 1 nM [^3H]-citalopram (specific activity=85 Ci/mmol) and increasing concentrations of test compounds for 1 hr at 25° C. in a total volume of 250 μl. The assay buffer consisted of 50 mM Tris (pH 7.4 at 25° C.), 120 mM NaCl and 5 mM KCl (pH 7.4 with conc. HCl). Plates were incubated for 1 hr at 25° C., then filtered through 0.5% PEI treated Whatman GF/B filters using a Brandel cell harvester. Filters were washed three times with 3 ml of ice-cold tris wash buffer. Non-specific binding was defined with 10 μM fluoxetine. Amount of radioligand bound in the presence and absence of competitor was analyzed by plotting (−)log drug concentration versus the amount of radioligand specifically bound. The midpoint of the displacement curve (IC50, nM), signifies the potency. Ki values can be calculated using the method of Cheng and Prusoff (Cheng and Prusoff, Biochemical Pharmacology, Vol 22, pp. 3099–3108, Pergamon Press (1973)).

Structures are written as SMILES.

The text below walks through data of patent publication US7179926B2, “Aryloxyalkylamine NK-1/SSRI inhibitors” (Bristol-Myers Squibb Company, priority 2004, dated 2007).

T1 sequence (P25103 whole entry): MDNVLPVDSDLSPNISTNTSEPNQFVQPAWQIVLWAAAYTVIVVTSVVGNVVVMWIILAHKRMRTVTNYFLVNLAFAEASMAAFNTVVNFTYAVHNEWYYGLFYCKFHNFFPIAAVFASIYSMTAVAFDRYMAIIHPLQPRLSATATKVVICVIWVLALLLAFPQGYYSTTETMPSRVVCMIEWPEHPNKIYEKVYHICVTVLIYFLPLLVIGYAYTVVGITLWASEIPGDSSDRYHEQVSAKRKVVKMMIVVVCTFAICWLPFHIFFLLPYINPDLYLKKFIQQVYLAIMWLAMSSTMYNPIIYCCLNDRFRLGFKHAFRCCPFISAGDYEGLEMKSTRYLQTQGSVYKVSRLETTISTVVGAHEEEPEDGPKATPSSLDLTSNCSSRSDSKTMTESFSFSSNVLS

With `COc1ccc(C(O)(CCN)COCc2cc(C(F)(F)F)cc(C(F)(F)F)c2)cc1` (centres unmarked) [Example 20, 1-(3,5-bis(trifluoromethyl)benzyloxy)-4-amino-2-(4-methoxyphenyl)butan-2-ol], the IC50 (usually the concentration that inhibits the measured activity by half) in assay [1] lay in the range of 0.1 to 0.3 µM; in assay [2] it was 0.001 to 0.1 µM.

Turning to `CN(C)CC(O)(COCc1cc(C(F)(F)F)cc(C(F)(F)F)c1)c1ccccc1` (centres unmarked) [Example 1, 1-(3,5-bis(trifluoromethyl)benzyloxy)-3-(dimethylamino)-2-phenylpropan-2-ol], the IC50 lay in the range of 0.001 to 0.1 µM in assay [1] and 0.1 to 0.3 µM in assay [2].

`Cc1ccc(C(O)(CCN)COCc2cc(C(F)(F)F)cc(C(F)(F)F)c2)cc1C` (centres unmarked) [Example 32, 1-(3,5-bis(trifluoromethyl)benzyloxy)-4-amino-2-(3,4-dimethylphenyl)butan-2-ol]: the IC50 in assay [1] and in assay [2] was 0.001 to 0.1 µM each time.

As for `NCCC(O)(COCc1cc(F)cc(C(F)(F)F)c1)c1ccccc1` (centres unmarked) [Example 51, 1-(3-fluoro-5-(trifluoromethyl)benzyloxy)-4-amino-2-phenylbutan-2-ol], the IC50 in assay [1] and in assay [2] was 0.001 to 0.1 µM throughout.

Regarding `NCCC(O)(COCc1cc(C(F)(F)F)cc(C(F)(F)F)c1)c1ccccc1` (racemic) [Example 7, 1-(3,5-bis(trifluoromethyl)benzyloxy)-4-amino-2-phenylbutan-2-ol], the IC50 is 0.1 to 0.3 µM in assay [1] and more than 0.3 µM in assay [2].

Regarding `Cc1cc(C(O)(CCN)COCc2cc(C(F)(F)F)cc(C(F)(F)F)c2)ccc1F` (centres unmarked) [Example 13, 1-(3,5-bis(trifluoromethyl)benzyloxy)-4-amino-2-(4-fluoro-3-methylphenyl)butan-2-ol], the IC50 in assay [1] and in assay [2] was 0.001 to 0.1 µM in each case.

On to `NCCC(O)(COCc1ccccc1Br)c1ccccc1` (centres unmarked) [Example 52, 1-(2-bromobenzyloxy)-4-amino-2-phenylbutan-2-ol], for which the IC50 in assay [1] is more than 0.3 µM; in assay [2], 0.001 to 0.1 µM.

For `Cc1ccc(C)c(C(O)(CCN)COCc2cc(C(F)(F)F)cc(C(F)(F)F)c2)c1` (centres unmarked) [Example 37, 1-(3,5-bis(trifluoromethyl)benzyloxy)-4-amino-2-(2,5-dimethylphenyl)butan-2-ol], the IC50 in assay [1] and in assay [2] was 0.001 to 0.1 µM each time.

As to `NCCC(O)(COCc1cccc(OC(F)(F)F)c1)c1ccccc1` (centres unmarked) [Example 69, 1-(3-(trifluoromethoxy)benzyloxy)-4-amino-2-phenylbutan-2-ol], the IC50 was more than 0.3 µM in assay [1] and 0.001 to 0.1 µM in assay [2].

For `NCCC(O)(COCc1cc(C(F)(F)F)cc(C(F)(F)F)c1)c1ccc(Cl)cc1` (centres unmarked) [Example 42, 1-(3,5-bis(trifluoromethyl)benzyloxy)-4-amino-2-(4-chlorophenyl)butan-2-ol], the IC50 in assay [1] and in assay [2] was 0.001 to 0.1 µM each time.

In the case of `NCCC(O)(COCc1cc(C(F)(F)F)cc(C(F)(F)F)c1)c1cccc2ccccc12` (centres unmarked) [Example 34, 1-(3,5-bis(trifluoromethyl)benzyloxy)-4-amino-2-(naphthalen-1-yl)butan-2-ol], the IC50 in assay [1] and in assay [2] was 0.001 to 0.1 µM throughout.

For the molecule `CCCc1ccc(C(O)(CCN)COCc2cc(C(F)(F)F)cc(C(F)(F)F)c2)cc1` (centres unmarked) [Example 35, 1-(3,5-bis(trifluoromethyl)benzyloxy)-4-amino-2-(4-propylphenyl)butan-2-ol], the half-inhibitory concentration (IC50) in assay [1] is more than 0.3 µM; in assay [2], 0.1 to 0.3 µM.

Regarding `NCCC(O)(COCc1cccc(Br)c1)c1ccccc1` (centres unmarked) [Example 48, 1-(3-bromobenzyloxy)-4-amino-2-phenylbutan-2-ol], the half-maximal inhibitory concentration (IC50) was more than 0.3 µM in assay [1] and 0.001 to 0.1 µM in assay [2].

As for `CNCCC(O)(COCc1cc(C(F)(F)F)cc(C(F)(F)F)c1)c1ccccc1` (centres unmarked) [Example 6, 1-(3,5-bis(trifluoromethyl)benzyloxy)-4-(methylamino)-2-phenylbutan-2-ol], the IC50 in assay [1] and in assay [2] was 0.001 to 0.1 µM in each case.

For `NCCC(O)(COCc1ccc(C(F)(F)F)cc1)c1ccccc1` (centres unmarked) [Example 56, 1-(4-(trifluoromethyl)benzyloxy)-4-amino-2-phenylbutan-2-ol], the IC50 is more than 0.3 µM in assay [1] and 0.1 to 0.3 µM in assay [2].

Regarding `CNCCC(C)(COCc1cc(C(F)(F)F)cc(C(F)(F)F)c1)c1ccccc1` (centres unmarked) [Example 75, 1-(3,5-bis(trifluoromethyl)benzyloxy)-4-methylamino-2-methyl-2-phenylbutane], the IC50 in assay [1] was in the range of 0.001 to 0.1 µM; in assay [2], 0.1 to 0.3 µM.

Regarding `COc1ccccc1COCC(O)(CCN)c1ccccc1` (centres unmarked) [Example 62, 1-(2-methoxybenzyloxy)-4-amino-2-phenylbutan-2-ol], the IC50 in assay [1] is more than 0.3 µM; in assay [2], 0.001 to 0.1 µM.

For `NCCC(O)(COCc1cccc(C(F)(F)F)c1)c1ccccc1` (centres unmarked) [Example 55, 1-(3-(trifluoromethyl)benzyloxy)-4-amino-2-phenylbutan-2-ol], the IC50 in assay [1] and in assay [2] was 0.1 to 0.3 µM each time.

As for `CNCCC(COCc1cc(C(F)(F)F)cc(C(F)(F)F)c1)c1ccccc1` (centres unmarked) [Example 72, 1-(3,5-bis(trifluoromethyl)benzyloxy)-4-methylamino-2-phenylbutane], the IC50 in assay [1] and in assay [2] was 0.001 to 0.1 µM throughout.

With `Cc1c(F)cccc1C(O)(CCN)COCc1cc(C(F)(F)F)cc(C(F)(F)F)c1` (centres unmarked) [Example 36, 1-(3,5-bis(trifluoromethyl)benzyloxy)-4-amino-2-(3-fluoro-2-methylphenyl)butan-2-ol], the IC50 in assay [1] and in assay [2] was 0.001 to 0.1 µM each time.

As for `Cc1cc(F)ccc1C(O)(CCN)COCc1cc(C(F)(F)F)cc(C(F)(F)F)c1` (centres unmarked) [Example 31, 1-(3,5-bis(trifluoromethyl)benzyloxy)-4-amino-2-(4-fluoro-2-methylphenyl)butan-2-ol], the IC50 in assay [1] and in assay [2] was 0.001 to 0.1 µM in each case.

`Cc1ccc(C(O)(CCN)COCc2cc(C(F)(F)F)cc(C(F)(F)F)c2)c2ccccc12` (centres unmarked) [Example 22, 1-(3,5-bis(trifluoromethyl)benzyloxy)-4-amino-2-(4-methylnaphthalen-1-yl)butan-2-ol]: the IC50 in assay [1] was 0.1 to 0.3 µM; in assay [2], 0.001 to 0.1 µM.

As for `Cc1cccc(C(O)(CCN)COCc2cc(C(F)(F)F)cc(C(F)(F)F)c2)c1C` (centres unmarked) [Example 26, 1-(3,5-bis(trifluoromethyl)benzyloxy)-4-amino-2-(2,3-dimethylphenyl)butan-2-ol], the IC50 in assay [1] and in assay [2] was 0.001 to 0.1 µM throughout.

`NCCC(COCc1cc(C(F)(F)F)cc(C(F)(F)F)c1)c1ccccc1` (centres unmarked) [Example 71, 1-(3,5-bis(trifluoromethyl)benzyloxy)-4-amino-2-phenylbutane]: the IC50 in assay [1] lay in the range of 0.001 to 0.1 µM; in assay [2], 0.1 to 0.3 µM.

With `CNCC(O)(COCc1cc(C(F)(F)F)cc(C(F)(F)F)c1)c1ccccc1` (centres unmarked) [Example 3, 1-(3,5-bis(trifluoromethyl)benzyloxy)-3-(methylamino)-2-phenylpropan-2-ol], the IC50 in assay [1] fell in the range of 0.001 to 0.1 µM; in assay [2] it was 0.1 to 0.3 µM.
